Patent publication US8518928B2, “Therapeutic compounds” (Rutgers, The State University of New Jersey, priority 2006, dated 2013)
Where a name gives a salt, the structure may show the parent alone.

How the values were obtained:
[1] = tested on: SK-N-AS; settings: human neuroblastoma cell line SK-N-AS; read-out: cytotoxicity IC50; cited from earlier work
[2] = tested on: WAC2; settings: human neuroblastoma cell line WAC2; read-out: cytotoxicity IC50; cited from earlier work
[3] = tested on: MiaPaCa; settings: human pancreatic carcinoma MiaPaCa; read-out: cytotoxicity IC50; cited from earlier work
[4] = tested on: bone marrow CD34-positive cells; settings: cited from earlier work
[5] = tested on: LAN1; settings: human neuroblastoma cell line LAN1; read-out: cytotoxicity IC50; cited from earlier work
[6] = tested on: LAN5; settings: human neuroblastoma cell line LAN5; read-out: cytotoxicity IC50; cited from earlier work

CC(C)C1NC(=O)c2coc(n2)-c2coc(n2)-c2coc(n2)C(CCCCN)NC(=O)c2coc(n2)-c2coc(n2)-c2coc1n2 (stereo not shown) (as salt: TFA) [Compound 15, Cyclic Lysine-Valine Amine TFA Salt]
melting point: 297 to 300 °C

Cc1oc2nc1-c1nc(co1)-c1nc(co1)-c1nc(co1)-c1nc(co1)-c1nc(co1)C1=NC(CS1)c1nc-2c(C)o1 (stereo not shown) [Telomestatin]
IC50 [1]: 0.8 µM | IC50 [2]: 3.2 µM | IC50 [3]: 0.5 µM | effect on BFU-E and CFU-GM [4]: much lesser effect | IC50 [5]: 4 µM | IC50 [6]: 2.5 µM
